{"source": "patent US9796672B2", "about": "“Isoindoline compositions and methods for treating neurodegenerative disease” (Cognition Therapeutics, Inc., priority 2014, dated 2017)", "key": {"[1]": {"tested_on": "Abeta oligomer-induced synapse loss in primary hippocampal neurons", "experiment": "Abeta 1-42 oligomer binding and synapse loss assay", "format": "cell-based, rat", "method": "Primary hippocampal neuronal culture is established as in the membrane trafficking assay above. […] Pretreatment with test compounds for 1 hr and addition of Abeta oligomers or no oligomer (vehicle alone) is followed by incubation for an additional 23 hrs.\nThe plates are then washed 3× with PBS for 5 min each. The plates are blocked at RT for 1 hr in 5% goat serum and 0.5% Triton X-100 in PBS. Primary antibodies (anti-MAP 2 polyclonal, Millipore #AB5622 and anti-Beta Amyloid 6E10 monoclonal, Covance #SIG-39300, at 1 microgram/ml, and rabbit polyclonal anti-synaptophysin, Anaspec, at 0.2 microgram/ml) were diluted 1:1000 in 5% goat serum with PBS. Primary antibodies are incubated overnight at 4° C. The plates are then washed 3× with PBS for 5 min each. Secondary antibodies (Alex Flor 488 polyclonal, Invitrogen #A11008 and Alexa Flor 647 monoclonal, Invitrogen #A21235) are diluted 1:1000 in 5% goat serum with PBS. Secondary antibodies are incubated at RT for 1 hr. The plates are washed once with PBS. DAPI (4′,6-diamidino-2-phenylindole, Invitrogen) is then applied at 0.03 ug/ul and incubated at RT for 5 min, then washed with PBS."}, "[2]": {"tested_on": "caspase-3", "conditions": "cited from earlier work; for caspase-3 activation: tumor cells and neurons"}, "[3]": {"tested_on": "neurons", "conditions": "24 hours treatment; cited from earlier work"}, "[4]": {"tested_on": "MDA-MB-435 or MDA-MB231 or SKOV-3 cells", "experiment": "Tumor cell viability (MTS) assay", "format": "cell-based", "procedure": "The cytotoxicity of test compounds is determined using the CellTiter96 Aqueous One Solution Assay (Promega, Madison, Wis.). Briefly, MDA-MB-435 or MDA-MB231 or SKOV-3 cells were seeded in a 96-well plate at a density of 2000 cells/well on the day prior to treatment with sigma-2 receptor selective ligands. […] The plate is read at 490 nm in a Victor3 plate reader (PerkinElmer Life and Analytical Sciences, Shelton, Conn.). The EC^50 value, defined as the concentration of the sigma ligand required to inhibit cell viability by 50% relative to untreated cells, is determined from the dose response curve for each cell line. Siramesine is accepted as an agonist."}, "[5]": {"biological_target": "Sigma-1 receptor", "experiment": "Sigma-1 receptor competitive radioligand binding assay", "conditions": "read-out: Sigma-1 Receptor Affinity, Ki"}, "[6]": {"tested_on": "neuronal cultures", "experiment": "Functional neuronal phenotype in neuronal cultures", "format": "cell-based", "method": "Neuronal cultures are treated with various concentrations of sigma compounds for 24 hours and nuclear intensity compared to vehicle is measured."}, "[7]": {"tested_on": "Abeta oligomer-induced membrane trafficking deficits in primary hippocampal neurons", "experiment": "Membrane trafficking/exocytosis (MTT) assay", "conditions": "read-out: Membrane Trafficking EC50; compound dosed prior to Abeta oligomer addition"}, "[8]": {"experiment": "Mouse liver microsome (MLM) stability", "format": "in vitro ADME", "conditions": "mouse, microsomes", "procedure": "A first pharmacokinetic study was performed in microsomes of mice mouse liver microsomes, MLM) by a commercial contract research organization. The studies were performed according to Obach, R. S et al. (1997) J. Pharmacol. Exp. Ther., 283: 46-58, which is incorporated herein by reference."}, "[9]": {"biological_target": "potassium channel hERG (Homo sapiens (Human), UniProt Q12809)", "sequence (Q12809 whole entry)": "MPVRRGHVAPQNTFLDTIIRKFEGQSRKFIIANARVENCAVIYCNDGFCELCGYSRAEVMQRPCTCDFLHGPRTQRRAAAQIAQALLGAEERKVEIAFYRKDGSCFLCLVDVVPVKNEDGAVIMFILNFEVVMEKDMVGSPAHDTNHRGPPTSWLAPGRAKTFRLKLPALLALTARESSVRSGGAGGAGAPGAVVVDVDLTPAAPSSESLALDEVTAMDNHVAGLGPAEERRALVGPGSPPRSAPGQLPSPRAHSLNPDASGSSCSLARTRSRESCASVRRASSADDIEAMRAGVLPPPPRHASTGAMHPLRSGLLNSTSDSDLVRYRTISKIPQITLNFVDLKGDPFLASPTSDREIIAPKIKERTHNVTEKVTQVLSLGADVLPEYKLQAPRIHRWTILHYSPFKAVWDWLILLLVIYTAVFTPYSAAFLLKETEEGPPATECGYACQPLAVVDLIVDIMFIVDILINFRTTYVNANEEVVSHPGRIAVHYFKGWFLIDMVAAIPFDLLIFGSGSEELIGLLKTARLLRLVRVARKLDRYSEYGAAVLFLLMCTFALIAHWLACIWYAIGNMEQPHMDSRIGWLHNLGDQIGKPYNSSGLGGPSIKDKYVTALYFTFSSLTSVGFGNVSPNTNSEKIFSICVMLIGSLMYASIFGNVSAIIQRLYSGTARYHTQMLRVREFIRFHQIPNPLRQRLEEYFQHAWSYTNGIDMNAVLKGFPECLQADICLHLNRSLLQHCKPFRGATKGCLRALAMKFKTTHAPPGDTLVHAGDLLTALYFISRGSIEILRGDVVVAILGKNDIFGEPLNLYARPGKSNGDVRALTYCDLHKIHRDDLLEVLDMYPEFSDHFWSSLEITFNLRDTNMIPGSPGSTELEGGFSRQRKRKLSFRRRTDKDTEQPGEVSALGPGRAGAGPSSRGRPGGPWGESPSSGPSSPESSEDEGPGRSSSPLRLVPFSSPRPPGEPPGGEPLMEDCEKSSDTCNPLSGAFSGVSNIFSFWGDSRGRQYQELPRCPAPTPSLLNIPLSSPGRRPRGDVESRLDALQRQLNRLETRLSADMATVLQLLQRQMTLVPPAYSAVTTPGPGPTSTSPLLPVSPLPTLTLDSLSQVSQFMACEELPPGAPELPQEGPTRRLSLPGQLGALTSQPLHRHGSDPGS", "experiment": "In vitro toxicity, hERG inhibition", "format": "biochemical", "method": "In vitro toxicity for Test Compounds is tested in a number of standard assays."}, "[10]": {"biological_target": "Sigma-2 receptor", "experiment": "Sigma-2 receptor competitive radioligand binding assay", "design": "species or system rat", "conditions": "read-out: Sigma-2 Receptor Affinity, Ki", "method": "Radioligand binding assays for Sigma-1 receptors and Sigma-2 receptors were carried out by a commercial contract research organization. For Sigma-1 binding, various concentrations of test compounds from 100 μM to 1 nM were used to displace 8 nM [^3H](+)pentazocine from endogenous receptors on Jurkat cell membranes (Ganapathy M E et al. 1991, J Pharmacol. Exp. Ther. 289:251-260). 10 μM Haloperidol was used to define non-specific binding. For Sigma-2 receptors various concentrations of test compounds from 100 μM to 1 nM were used to displace 5 nM [^3H] […] (Bowen W D, et al. 1993, Mol. Neuropharmcol 3:117-126). 10 μM Haloperidol was used to define non-specific binding. Reactions were terminated by rapid filtration through Whatman GF/C filters using a Brandel 12R cell harvester followed by two washes with ice-cold buffer. Radioactivity on the dried filter discs was measured using a liquid scintillation analyzer (Tri-Carb 2900TR; PerkinElmer Life and Analytical Sciences). The displacement curves were plotted and the Ki values of the test ligands for the receptor subtypes were determined using GraphPad Prism (GraphPad Software Inc., San Diego, Calif.). The percentage specific binding was determined by dividing the difference between total bound (disintegrations per minute) and nonspecific bound (disintegrations per minute) by the total bound (disintegrations per minute).\nThe affinity of candidate sigma-2 ligand compounds at sigma-1 and sigma-2 receptors was also determined by displacement of different known labeled sigma-2 or sigma-1 ligands. Filtration assays were conducted according the previously published procedure (Xu, et al., 2005). Test compounds were dissolved in N,N-Dimethylformamide (DMF), dimethyl sulfoxide (DMSO) or ethanol and then diluted in 50 mM Tris-HCl pH 7.4 buffer containing 150 mM NaCl and 100 mM EDTA. Membrane homogenates were made from guinea pig brain for sigma-1 binding assay and rat liver for sigma-2 binding assay. Membrane homogenates were diluted with 50 mM Tris-HCl buffer, pH 8.0 and incubated at 25° C. in a total volume of 150 uL in 96 well plates with the radioligand and test compounds with concentrations ranging from 0.1 nM to 10 uM. After incubation was completed, the reactions were terminated by the addition of 150 uL of ice-cold wash buffer (10 mM Tris HCl, 150 mM NaCl, pH 7.4) using a 96 channel transfer pipette (Fisher Scientific, Pittsburgh, Pa.) and the samples harvested and filtered rapidly through 96 well fiber glass filter plate (Millipore, Billerica, Mass.) that had been presoaked with 100 uL of 50 mM Tris-HCl buffer. Each filter was washed four times with 200 uL of ice-cold wash buffer (10 mM Tris-HCl, 150 mM NaCl, pH 7.4). A Wallac 1450 MicroBeta liquid scintillation counter (Perkin Elmer, Boston, Mass.) was used to quantitate the bound radioactivity.\nNonspecific binding was determined from samples that contained 10 uM of cold haloperidol.\nThe binding affinity, Ki values was calculated using the method of Cheng and Prusoff."}}, "note": "“Also recorded” adds a separate entry of the source.", "data": [{"molecule": "CCCN(CCC)CCc1ccc(OC)c(OCCc2ccccc2)c1", "note": "[NE-100]", "values": [{"measurement": "elimination of Abeta oligomer-induced synapse loss", "setting": "[1]", "value": "completely eliminated synapse loss"}]}, {"molecule": "COc1cc2c(cc1OC)CN(CCCCNC(=O)c1cc(C)ccc1OC)CC2", "note": "[RHM-1, N-[4-(3,4-dihydro-6,7-dimethoxyisoquinolin-2(1H)-yl)butyl]-2-methoxy-5-methylbenzamide]", "values": [{"measurement": "caspase-3 activation", "setting": "[2]", "value": "do not induce caspase-3 activity"}, {"measurement": "inhibition of caspase-3 activation", "setting": "[2]; tumor cells", "value": "inhibits the activation in tumor cells"}, {"measurement": "nuclear morphology / nuclear intensity in neurons", "setting": "[3]", "value": "do not decrease nuclear intensity"}, {"measurement": "Action", "setting": "[4]", "value": "Antagonist"}]}, {"molecule": "CCC(Oc1ccc(Cl)cc1)C(=O)OC1CC2CCC(C1)N2C", "note": "(stereo not drawn) [SM-21]", "values": [{"measurement": "elimination of Abeta oligomer-induced synapse loss", "setting": "[1]", "value": "only weakly active in eliminating synapse loss"}, {"measurement": "synapse loss recovery", "setting": "[1]", "value": 20, "unit": "%"}]}, {"molecule": "COc1ccc(C)cc1NC(=O)OC1C[C@H]2CCC[C@@H](C1)N2CCCCCCN", "note": "(stereo partly drawn) [SV-119]", "values": [{"measurement": "caspase-3 activation", "setting": "[2]", "value": "activate caspase-3 in tumor cells and neurons"}, {"measurement": "nuclear morphology / nuclear intensity in neurons", "setting": "[3]", "value": "cause significant abnormal nuclear morphology in neurons"}, {"measurement": "Action", "setting": "[4]", "value": "Full agonist"}, {"measurement": "IC50", "setting": "[4]; read-out: IC50, 48 hrs., Tumor cell viability, 48 hrs", "value": "21700 ± 2900", "unit": "nM"}]}, {"molecule": "Fc1ccc(-n2cc(CCCCN3CCC4(CC3)OCc3ccccc34)c3ccccc32)cc1", "note": "[Siramesine]", "values": [{"measurement": "caspase-3 activation", "setting": "[2]", "value": "activate caspase-3 in tumor cells and neurons; also recorded: induces caspase-3 activity"}, {"measurement": "nuclear morphology / nuclear intensity in neurons", "setting": "[3]", "value": "cause significant abnormal nuclear morphology in neurons"}, {"measurement": "Action", "setting": "[4]", "value": "Full agonist"}]}, {"molecule": "CC(C)COc1cc(CCC(C)(C)N2Cc3cccc(F)c3C2)ccc1O", "note": "[compound 88]", "values": [{"measurement": "Ki", "setting": "[5]", "value": 96, "unit": "nM"}, {"measurement": "neuronal phenotype", "setting": "[6]", "value": "Neuroactive"}, {"measurement": "EC50", "setting": "[7]", "value": 360, "unit": "nM"}, {"measurement": "Mouse liver microsomes, MLM t½", "setting": "[8]", "value": 28, "unit": "min"}, {"measurement": "IC50", "setting": "[9]", "value": 2800, "unit": "nM"}, {"measurement": "Ki", "setting": "[10]", "value": 1.3, "unit": "nM"}]}, {"molecule": "O=C(CCCN1CCC(O)(c2ccc(Cl)cc2)CC1)c1ccc(F)cc1", "note": "[haloperidol]", "values": [{"measurement": "elimination of Abeta oligomer-induced synapse loss", "setting": "[1]", "value": "completely eliminated synapse loss"}]}]}
